Legend:
transgenic rice = conditions: cited from earlier work
AHAS [1] = test: Inhibition of AHAS activity in wild type CDC Richlea lentil by imidazolinone herbicides; assay type: biochemical, lentil (Lens culinaris); conditions: wild type CDC Richlea lentil variety; increasing herbicide concentrations (FIG. 4, FIG. 5)
From the text: (§1) FIG. 4 is a graph showing the inhibition of AHAS activity in RH44 and CDC Richlea lentil plants by increasing concentrations of imazapic.
(§2) FIG. 5 is a graph showing the inhibition of AHAS activity in RH44 and CDC Richlea lentil plants by increasing concentrations of imazethapyr.
(§3) The AHAS activity in the wild type CDC Richlea lentil variety was inhibited by imazapic (CADRE®)) (FIG. 4) and imazethapyr (PURSUIT®) (FIG. 5) representative of all imidazolinone herbicides.

AHAS [2] = test: Inhibition of AHAS activity in RH44 lentil by imidazolinone herbicides; assay type: biochemical, lentil (Lens culinaris); conditions: RH44 lentil variety, compared with wild type CDC Richlea (FIG. 4, FIG. 5)
From the text: as §1, §2, §3
It is therefore likely that the gene primarily responsible for AHAS activity in the RH44 lentil has undergone a point mutation similar to that observed in corn, wheat and canola. This has made the isozyme coded for by this sequence resistant to imidazolinone inhibition. The wild type isozyme has no such mutation and therefore is susceptible to imidazolinone herbicide. Such a scenario would explain why AHAS activity drops 30 to 40% with the addition of maximum concentrations of imidazolinone herbicides.

AHAS [3] = test: Negative feedback inhibition assay of AHAS activity; assay type: biochemical, RH44 lentil and CDC Richlea lentil varieties; conditions: leucine and valine addition (FIG. 3)
From the text: FIG. 3 is a graph showing the inhibition of AHAS activity in RH44 and CDC Richlea lentil plants by a negative feedback inhibition assay.
The responses of the RH44 lentil variety and the CDC Richlea variety were identical in a negative feedback inhibition assay. As described earlier, AHAS is an enzyme active in the biosynthesis of leucine and valine. Under conditions of excess leucine and/or valine, the activity of AHAS is diminished. The ability of leucine and valine addition to inhibit AHAS activity was the same in the RH44 lentil and CDC Richlea lentil varieties, indicating very similar levels of expression and a lack of any discernible difference in AHAS function (FIG. 3).

| Compound | inhibition of AHAS activity (AHAS [1]) | inhibition of AHAS activity (AHAS [2]) | ability to inhibit AHAS activity, RH44 versus CDC Richlea (AHAS [3]) | also measured |
| --- | --- | --- | --- | --- |
| COc1nc(C)nc(NC(=O)NS(=O)(=O)c2ccccc2Cl)n1 [chlorsulfuron] |  |  |  | differences in in vitro resistance (transgenic rice; Arabidopsis ALS promoter replaced with the CaMV35S promoter): 40 fold; increase in in vitro resistance (transgenic rice; transgenic rice containing a 35S/ALS transgene): 200 fold |
| Cc1cnc(C2=NC(=O)C(C)(C(C)C)N2)c(C(=O)O)c1 (centres unmarked) [imazapic] | inhibited | not to the same extent as for the wild type lentil CDC Richlea |  |  |
| CCc1cnc(C2=NC(C)(C(C)C)C(=O)N2)c(C(=O)O)c1 (centres unmarked) [imazethapyr] | inhibited | not to the same extent as for the wild type lentil CDC Richlea |  |  |
| CC(C)C[C@H](N)C(=O)O [leucine] |  |  | the same |  |
| CC(C)[C@H](N)C(=O)O [valine] |  |  | the same |  |

Source: USRE45340E1, “Lentil plants having increased resistance to imidazolinone herbicides” (University of Saskatchewan, priority 2001, dated 2015)
